# Source: PubChem BioAssay AID1963840 (Molecular Pharmacology Branch, DTP, NCI, 2024)
# Tested on: 695427-040-R-J1-PDC complex spheroid viability
# Assay: Anticancer human tumor 695427-040-R-J1-PDC patient-derived colon adenocarcinoma cell line growth inhibition [POLQ]
# Conditions: for IC50: curve of first compound; for viability, T/C: stronger effect = lower value
# Method in brief: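 PDC + HUVEC + MSC complex spheroids; POLQ inhibitors ± partner drugs; top conc. at/near clinical Cmax, else 10 microM (SN-38 1 microM), half-log dilutions; 37 degrees C, 5% CO2.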
# [1] = second compound 0.0316 µM, first compound 0.0316 µM
# [2] = second compound 0.0316 µM, first compound 0.1 µM
# [3] = second compound 0.0316 µM, first compound 0.316 µM
# [4] = second compound 0.0316 µM, first compound 1 µM
# [5] = second compound 0.0316 µM, first compound 3.16 µM
# [6] = second compound 0.0316 µM, first compound 10 µM
# [7] = second compound 0.1 µM, first compound 0.0316 µM
# [8] = second compound 0.1 µM, first compound 0.1 µM
# [9] = second compound 0.1 µM, first compound 0.316 µM
# [10] = second compound 0.1 µM, first compound 1 µM
# [11] = second compound 0.1 µM, first compound 3.16 µM
# [12] = second compound 0.1 µM, first compound 10 µM
# [13] = second compound 0.316 µM, first compound 0.0316 µM
# [14] = second compound 0.316 µM, first compound 0.1 µM
# [15] = second compound 0.316 µM, first compound 0.316 µM
# [16] = second compound 0.316 µM, first compound 1 µM
# [17] = second compound 0.316 µM, first compound 3.16 µM
# [18] = second compound 0.316 µM, first compound 10 µM
# [19] = second compound 1 µM, first compound 0.0316 µM
# [20] = second compound 1 µM, first compound 0.1 µM
# [21] = second compound 1 µM, first compound 0.316 µM
# [22] = second compound 1 µM, first compound 1 µM
# [23] = second compound 1 µM, first compound 3.16 µM
# [24] = second compound 1 µM, first compound 10 µM
# [25] = second compound 3.16 µM, first compound 0.0316 µM
# [26] = second compound 3.16 µM, first compound 0.1 µM
# [27] = second compound 3.16 µM, first compound 0.316 µM
# [28] = second compound 3.16 µM, first compound 1 µM
# [29] = second compound 3.16 µM, first compound 3.16 µM
# [30] = second compound 3.16 µM, first compound 10 µM
# [31] = second compound 10 µM, first compound 0.0316 µM
# [32] = second compound 10 µM, first compound 0.1 µM
# [33] = second compound 10 µM, first compound 0.316 µM
# [34] = second compound 10 µM, first compound 1 µM
# [35] = second compound 10 µM, first compound 3.16 µM
# [36] = second compound 10 µM, first compound 10 µM
# 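Also: spheroids exposed to compounds for seven days.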
# 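For viability, T/C in this document: 100% = DMSO vehicle control viability.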
compound,measurement,setting,value
C=CC(=O)N1CCN(c2nc(=O)n(-c3c(C)ccnc3C(C)C)c3nc(-c4c(O)cccc4F)c(F)cc23)C(C)C1 (stereo unspecified) + Cc1cccc(N(C)C(=O)C2C(O)CCN2c2nc(C)cc(C(F)(F)F)c2C#N)c1,IC50,second compound 0.0316 µM,> 10 µM
same,IC50,second compound 0.1 µM,> 10 µM
same,IC50,second compound 0.316 µM,> 10 µM
same,IC50,second compound 1 µM,> 10 µM
same,IC50,second compound 3.16 µM,> 10 µM
same,IC50,second compound 10 µM,> 10 µM
same,"viability, T/C",[1],98.8%
same,"viability, T/C",[2],93.9%
same,"viability, T/C",[3],101%
same,"viability, T/C",[4],105%
same,"viability, T/C",[5],107%
same,"viability, T/C",[6],110%
same,"viability, T/C",[7],96.2%
same,"viability, T/C",[8],92.4%
same,"viability, T/C",[9],101%
same,"viability, T/C",[10],108%
same,"viability, T/C",[11],99.9%
same,"viability, T/C",[12],104%
same,"viability, T/C",[13],103%
same,"viability, T/C",[14],103%
same,"viability, T/C",[15],101%
same,"viability, T/C",[16],104%
same,"viability, T/C",[17],101%
same,"viability, T/C",[18],106%
same,"viability, T/C",[19],98.1%
same,"viability, T/C",[20],98.5%
same,"viability, T/C",[21],97.8%
same,"viability, T/C",[22],99.4%
same,"viability, T/C",[23],97.5%
same,"viability, T/C",[24],102%
same,"viability, T/C",[25],97.8%
same,"viability, T/C",[26],84.5%
same,"viability, T/C",[27],97.9%
same,"viability, T/C",[28],93.4%
same,"viability, T/C",[29],103%
same,"viability, T/C",[30],107%
same,"viability, T/C",[31],87.8%
same,"viability, T/C",[32],91.8%
same,"viability, T/C",[33],87.5%
same,"viability, T/C",[34],101%
same,"viability, T/C",[35],102%
same,"viability, T/C",[36],105%
CC(C)n1c(=O)n(C)c2cnc3cc(F)c(-c4ccc(OCCCN5CCCCC5)nc4)cc3c21 + Cc1cccc(N(C)C(=O)C2C(O)CCN2c2nc(C)cc(C(F)(F)F)c2C#N)c1,IC50,second compound 0.0316 µM,> 10 µM
same,IC50,second compound 0.1 µM,> 10 µM
same,IC50,second compound 0.316 µM,> 10 µM
same,IC50,second compound 1 µM,> 10 µM
same,IC50,second compound 3.16 µM,> 10 µM
same,IC50,second compound 10 µM,> 10 µM
same,"viability, T/C",[1],97.5%
same,"viability, T/C",[2],98.8%
same,"viability, T/C",[3],101%
same,"viability, T/C",[4],111%
same,"viability, T/C",[5],98.3%
same,"viability, T/C",[6],75.8%
same,"viability, T/C",[7],99.3%
same,"viability, T/C",[8],102%
same,"viability, T/C",[9],110%
same,"viability, T/C",[10],108%
same,"viability, T/C",[11],96.8%
same,"viability, T/C",[12],70.3%
same,"viability, T/C",[13],104%
same,"viability, T/C",[14],101%
same,"viability, T/C",[15],106%
same,"viability, T/C",[16],113%
same,"viability, T/C",[17],92.7%
same,"viability, T/C",[18],68.7%
same,"viability, T/C",[19],101%
same,"viability, T/C",[20],102%
same,"viability, T/C",[21],105%
same,"viability, T/C",[22],103%
same,"viability, T/C",[23],102%
same,"viability, T/C",[24],67.2%
same,"viability, T/C",[25],98.5%
same,"viability, T/C",[26],100%
same,"viability, T/C",[27],102%
same,"viability, T/C",[28],98.5%
same,"viability, T/C",[29],98.2%
same,"viability, T/C",[30],67%
same,"viability, T/C",[31],93.5%
same,"viability, T/C",[32],99.9%
same,"viability, T/C",[33],99.6%
same,"viability, T/C",[34],101%
same,"viability, T/C",[35],100%
same,"viability, T/C",[36],55.7%
CC1COCCN1c1cc(-c2ccnn2C)c2ccnc(-c3ccn[nH]3)c2n1 (stereo unspecified) + Cc1cccc(N(C)C(=O)C2C(O)CCN2c2nc(C)cc(C(F)(F)F)c2C#N)c1,IC50,second compound 0.0316 µM,1.91 µM
same,IC50,second compound 0.1 µM,2.18 µM
same,IC50,second compound 0.316 µM,1.36 µM
same,IC50,second compound 1 µM,1.89 µM
same,IC50,second compound 3.16 µM,1.98 µM
same,IC50,second compound 10 µM,1.79 µM
same,"viability, T/C",[1],97.1%
same,"viability, T/C",[2],83%
same,"viability, T/C",[3],61.4%
same,"viability, T/C",[4],53.4%
same,"viability, T/C",[5],49%
same,"viability, T/C",[6],46.5%
same,"viability, T/C",[7],95.2%
same,"viability, T/C",[8],83.1%
same,"viability, T/C",[9],66.1%
same,"viability, T/C",[10],51.1%
same,"viability, T/C",[11],49.1%
same,"viability, T/C",[12],48.4%
same,"viability, T/C",[13],104%
same,"viability, T/C",[14],83.5%
same,"viability, T/C",[15],65.3%
same,"viability, T/C",[16],46.4%
same,"viability, T/C",[17],49.5%
same,"viability, T/C",[18],46.9%
same,"viability, T/C",[19],89.3%
same,"viability, T/C",[20],77.8%
same,"viability, T/C",[21],59.9%
same,"viability, T/C",[22],46.1%
same,"viability, T/C",[23],52.8%
same,"viability, T/C",[24],49.5%
same,"viability, T/C",[25],97.9%
same,"viability, T/C",[26],78.7%
same,"viability, T/C",[27],66.1%
same,"viability, T/C",[28],48.5%
same,"viability, T/C",[29],49%
same,"viability, T/C",[30],48%
same,"viability, T/C",[31],86.5%
same,"viability, T/C",[32],74.2%
same,"viability, T/C",[33],61.2%
same,"viability, T/C",[34],49.5%
same,"viability, T/C",[35],50.4%
same,"viability, T/C",[36],47.1%
